The record followed here is patent US4226883A, “Carbamate derivatives and method for manufacture thereof” (priority 1974, dated 1980).

Data set [1] relates to cholinesterase (ChE), resistant strain. Type of data set: biochemical, green rice leafhopper, Nephotettix cincticeps. The following applies: for Inhibition of Cholinesterase R/S (resistant ratio): ratio of the resistant strain to the susceptible strain (I50), 30 min; for IC50: resistant strain, 50% inhibition concentration, 30° C. 30 min with inhibitor, read-out: Inhibition of Cholinesterase I50 (M) R. On the procedure: After centrifuged (30,000 g, 10 min.), the supernatant was used as the source of ChE.
(§1) (2) Inhibition: 1.0 ml of enzyme solution was incubated with 0.1 ml of inhibitor which diluted with acetone at 30° C. for 30 min. ((2) solution).
(3) Determination of ChE activity: 1.0 ml of acetylthiochline (3.5/2×10^-2 M), 1.0 ml of DTNB (5,5'-dithiobis-2-nitrobenzoic acid, 2.5×10^-4 M) and 4.0 ml of phosphate buffer (1/15 M, pH 7.4) were added to the (2) solution and incubated at 30° C. for 10 min.

The target in data set [2] is cholinesterase (ChE), susceptible strain. The data set can be described thus: Inhibition of cholinesterase (acetylthiocholine method), susceptible strain enzyme. As to conditions: 50% inhibition concentration, 30° C. 30 min with inhibitor, read-out: Inhibition of Cholinesterase I50 (M) S. It counts as biochemical, green rice leafhopper, Nephotettix cincticeps. On the procedure: The activity of ChE was performed by the acethyethiocholine method [Ellman (1961), Biochemical Pharmacology 7: 88-95].
[…]. After centrifuged (30,000 g, 10 min.), the supernatant was used as the source of ChE.
as §1
(3) Determination of ChE activity: 1.0 ml of acetylthiochline (3.5/2×10^-2 M), 1.0 ml of DTNB (5,5'-dithiobis-2-nitrobenzoic acid, 2.5×10^-4 M) and 4.0 ml of phosphate buffer (1/15 M, pH 7.4) were added to the (2) solution and incubated at 30° C. for 10 min. After incubation, […] of eserine (2×10^-3 M) was added in order to stop the enzyme reaction and the optical density of the yellow solution was measured at 412 mμ on the spectrophotometer.

Data set [3] relates to sensitive green rice leafhoppers (S). As to conditions: susceptible strain, topical. Summed up: (§2)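 Test compounds were diluted in acetone and applied topically to the thorax of female green rice leafhoppers at 0.2 μl per head. Insects were then held in cups with […] at 26±1 °C, and mortality was counted after 24 h. LD50 for mixtures is expressed as total dosage.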
For data set [4], the system named is resistant green rice leafhoppers (R). As to conditions: for Insecticidal Activity R/S (resistant ratio): ratio of the resistant strain to the susceptible strain (LD50), 1440 min. Summed up:
as §2

For data set [5], the system named is citrus red mites (Panonychus citri McGregor) immunized from Dimethoate. Put plainly: whole plant or invertebrate. As to conditions: foliar, 24 h, read-out: Mortality (%), Concentration 250 ppm.
For data set [6], the system named is Culex pipiens pallens immunized against organophosphoric preparations, last larval state. The data set can be described thus: Test Example 9 (W.H.O. method): mosquito larvae test. It counts as in vivo. As to conditions: Culex pipiens, 24 h, read-out: Effect of compound used singly, LD50 (Table 16). As to the method: (1) An ethyl alcohol solution of each test compound was diluted with water to varying concentrations in the range of from 0.01 to 1.0 ppm.
(2) A 200-ml portion of each solution of a different concentration was placed in a 300-ml beaker. Then 30 test insects were plunged into the solution and then removed.
(3) The insects removed from the solution were kept in a greenhouse at a constant temperature of 25±1° C. for 24 hours. At the end of 24 hours of standing, a count was taken of the number of insects that had died by that time.
The test described above was repeated twice or thrice.

Data set [7] concerns green rice leafhoppers of the strain RN. Put plainly: Test Example 3: dust spray test (20 mesh metal gauze cylinder). It counts as in vivo, Nephotettix cincticeps. The following applies: 24 hr.

Where two headings read alike, the source gives them in different places. Where only a bound is given, the exact number is not on record here.

With `CNC(=O)Oc1cccc(C(C)(C)C)c1` [Compound 32, 3-tert-butylphenyl-N-methylcarbamate, reference compound], in data set [1], the “Inhibition of Cholinesterase R/S (resistant ratio)” value is 16.6 and the IC50 amounted to 1.2e-05 M. Also, the IC50 in data set [2] was found to be 7.2e-07 M. In addition, in data set [3], the “Insecticidal Activity (after 24 hrs.) LD50 (μg/g) S” value was 1.6 µg/g. Besides, in data set [4], the “Insecticidal Activity R/S (resistant ratio)” value is recorded as 31.3. For the same compound, the “Insecticidal Activity (after 24 hrs.) LD50 (μg/g) R” value in data set [4] (resistant strain, topical, 24 hrs) worked out at 50.0 µg/g.

`CCc1ccc(OC(=O)NC)cc1CC` [Compound 50, reference compound]: the mortality at 250 ppm in data set [5] was 70%. In data set [1], the “Inhibition of Cholinesterase R/S (resistant ratio)” value stood at 46.4 and the IC50 was determined as 5.1e-05 M. Also, the IC50 in data set [2] was found to be 1.1e-06 M.

As for `CCCNC(=O)Oc1cccc(C)c1` [Compound 26, 3-methylphenyl-N-n-propylcarbamate], the LC50 in data set [6] is over 1 µg/mL. The mortality at 250 ppm in data set [5] amounted to 85%. Also, the mortality at 100 mg/cylinder in data set [7] (2% dust, 100 mg, read-out: Mortality (%) after 24 hr., 100 mg Spray (Table 7)) came out at 70%; in data set [7] (Table 8, dust 100 mg, read-out: Mortality (%) after 24 hr., Spray Volume 100 mg), 70%. Moreover, the mortality at 250 mg/cylinder in data set [7] (2% dust, 250 mg, read-out: Mortality (%) after 24 hr., 250 mg Spray (Table 7)) came out at 100%; in data set [7] (Table 8, dust 250 mg, read-out: Mortality (%) after 24 hr., Spray Volume 250 mg) it was 100%. Besides, the “Insecticidal Activity R/S (resistant ratio)” value in data set [4] stood at 0.6.
